Values quoted from earlier work, collected in US9457026B2, “Methods for producing aripiprazole suspension and freeze-dried formulation” (OTSUKA PHARMACEUTICAL CO., LTD., priority 2007, dated 2016).

Conditions: room temperature

- aqueous solubility: < 1 µg/mL
Structure (SMILES): O=C1CCc2ccc(OCCCCN3CCN(c4cccc(Cl)c4Cl)CC3)cc2N1 [Aripiprazole]
